# Source: US20260209220A1, “SUBSTITUTED TETRAHYDROPYRROLO-PYRIDINONE COMPOUNDS AND THEIR USE IN TREATING MEDICAL CONDITIONS” (Karuna Therapeutics, Inc., priority 2022, published 2026)
# Biological target: T1, rM4 receptors (Rattus norvegicus, UniProt P08485)
# T1 construct: expressed in transfected cells; host or cells: CHO cells
# T1 sequence (P08485 1-478): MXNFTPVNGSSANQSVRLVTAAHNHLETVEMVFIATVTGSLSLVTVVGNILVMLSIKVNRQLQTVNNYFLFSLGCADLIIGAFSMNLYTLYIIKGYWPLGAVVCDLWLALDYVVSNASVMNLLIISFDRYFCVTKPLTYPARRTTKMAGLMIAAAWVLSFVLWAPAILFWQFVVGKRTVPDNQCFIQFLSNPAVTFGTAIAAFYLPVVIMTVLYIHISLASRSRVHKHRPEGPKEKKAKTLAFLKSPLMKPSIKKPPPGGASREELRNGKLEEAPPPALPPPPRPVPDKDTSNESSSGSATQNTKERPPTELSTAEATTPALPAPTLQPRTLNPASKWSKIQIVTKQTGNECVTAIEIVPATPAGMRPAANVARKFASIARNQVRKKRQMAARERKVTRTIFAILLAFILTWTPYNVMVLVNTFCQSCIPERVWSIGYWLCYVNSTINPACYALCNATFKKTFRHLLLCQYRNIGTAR
# Experiment: Rat M4 PAM PERK assay (CHO cells, TR-FRET, with EC20 acetylcholine)
# Assay type: cell-based
# Procedure, shortened: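 CHO cells expressing human or rat M4, serum-starved 4 h, then given compound (10-point, 10 μM top, ½-log) with EC20 acetylcholine (10 nM final) for 5 min at 37 °C. Lysates assayed for phospho-ERK by TR-FRET after 2 h detection at RT.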
row,EC50 [nM],Structure (SMILES)
1,< 50,Cc1c2c(n(C)c(=O)c1F)CN(C(=O)CC1CN(c3ccc(C4CC4)c(F)c3)C1)C2 [Compound I-88]
2,200 to 1000,Cc1cc(=O)n(C)c2c1CN(C(=O)CC1CN(c3cccc(F)c3F)C1)C2 [Compound I-14]
3,50 to 200,"Cc1c2c(n(C)c(=O)c1C)CN(C(=O)CC1CN(c3ccnc(C(F)(F)F)c3)C1)C2 [Compound I-42, 1,3,4-Trimethyl-6-(2-(1-(2-(trifluoromethyl)pyridin-4-yl)azetidin-3-yl)acetyl)-1,5,6,7-tetrahydro-2H-pyrrolo[3,4-b]pyridin-2-one]"
4,50 to 200,Cc1cc(=O)n(C)c2c1CN(C(=O)CC1CN(c3cc(F)cc(C4CC4)c3)C1)C2 [Compound I-4]
